Source: patent US20170119726A1, “Stabilized Cabazitaxel Formulations” (Cipla (UK) Limited, priority 2015, published 2017)

Columns and labels:
[1] = Study 4: in-life observations (mortality, clinical signs, body weight); conditions: both treatment groups, 12 mg/kg IV on days 1, 7, 13, 19, nude mice
Protocol: (§1) DU145 cells (5×106) at their exponential growth phase were inoculated subcutaneously on the dorsal right flank in athymic female mice. […] Animals in the vehicle control group received 5 w/v % dextrose solution. Growth of prostate xenografts (tumor volume) and whole body weights were recorded twice weekly (on days 1, 3, 5, 8, 10, 15, 17, 19) during treatment period. Animals were also monitored for clinical signs and mortality everyday throughout the study. On the day of sacrifice (day 19), blood and tumors were collected from set of animals (4 animals in each time point) at stipulated time points (1, 2, 3, and 4 h post-dose). At the end of blood collection, animals were humanely euthanized by cervical dislocation and tumor in toto was harvested from all the animals, transferred to pre-labeled microcentrifuge tubes before flash freezing in liquid nitrogen.

[2] = mouse, in vivo, iv, 12 mg/kg
Protocol: as §1

## CO[C@H]1C(=O)[C@]2(C)[C@@H](OC)C[C@H]3OC[C@@]3(OC(C)=O)[C@H]2[C@H](OC(=O)c2ccccc2)[C@]2(O)C[C@H](OC(=O)[C@H](O)[C@@H](NC(=O)OC(C)(C)C)c3ccccc3)C(C)=C1C2(C)C [Cabazitaxel, (2α,5β,7β,10β, 13α)-4-acetoxy-13-({(2R,3S)-3[(tertbutoxycarbonyl)amino]-2-hydroxy-3-phenylpropanoyl}-oxy)-1-hydroxy-7,10-dimethoxy-9-oxo-5,20-epoxytax-11-en-2-yl benzoate]
[1]
  mortality: no mortality was observed
[2]
  tolerability: well tolerated
